Test results from patent US5668121A, “Glutamate (NMDA) receptor antagonists” (Warner-Lambert Company, priority 1995, dated 1997).

Legend:
[1] = target: glutamate recognition site of the NMDA receptor; assay: [3H]-CGP 39653 receptor binding assay, synaptosomal membrane from rat cortex; conditions: read-out: affinity in [3H]-CGP binding assay (ability to displace 50% of the radioligand)
Protocol: (§1) Receptor binding experiments were performed using synaptosomal membrane from rat cortex according to means described in the literature.
(§2) Moreover, Bigge, et al., J. Med. Chem., 32 1580 (1989) discloses a [^3 H]-CCP binding assay result of 3.3 μM for the unsubstituted 5-(phosphonomethyl)-phenylalanine compound.

[2] = target: T1, neutral amino acid transporter (Cricetulus griseus, UniProt G3GRU9); assay: Competition with [3H]-L-phenylalanine for uptake into CHO cells; assay type: cell-based, Chinese hamster; conditions: 20 μM [3H]-L-phenylalanine
T1 construct: uptake into Chinese hamster ovary (CHO) cells; endogenous in cells; host or cells: Chinese hamster ovary (CHO) cells
T1 sequence (G3GRU9 1-506): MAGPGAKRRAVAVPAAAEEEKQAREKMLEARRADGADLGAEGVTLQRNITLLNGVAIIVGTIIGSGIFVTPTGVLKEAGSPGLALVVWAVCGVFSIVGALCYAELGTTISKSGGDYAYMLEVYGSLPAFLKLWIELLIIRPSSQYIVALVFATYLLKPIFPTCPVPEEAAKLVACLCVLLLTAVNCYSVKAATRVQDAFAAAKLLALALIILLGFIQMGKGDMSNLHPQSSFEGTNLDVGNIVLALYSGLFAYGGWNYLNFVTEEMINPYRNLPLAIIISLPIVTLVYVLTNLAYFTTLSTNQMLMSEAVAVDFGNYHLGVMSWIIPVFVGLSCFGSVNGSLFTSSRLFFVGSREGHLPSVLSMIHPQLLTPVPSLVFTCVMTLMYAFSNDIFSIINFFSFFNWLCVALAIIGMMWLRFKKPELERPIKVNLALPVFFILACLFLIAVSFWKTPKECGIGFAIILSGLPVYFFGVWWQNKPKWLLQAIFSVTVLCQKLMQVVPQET
T1 sequence (A0A9J7CH39 1-533 partner): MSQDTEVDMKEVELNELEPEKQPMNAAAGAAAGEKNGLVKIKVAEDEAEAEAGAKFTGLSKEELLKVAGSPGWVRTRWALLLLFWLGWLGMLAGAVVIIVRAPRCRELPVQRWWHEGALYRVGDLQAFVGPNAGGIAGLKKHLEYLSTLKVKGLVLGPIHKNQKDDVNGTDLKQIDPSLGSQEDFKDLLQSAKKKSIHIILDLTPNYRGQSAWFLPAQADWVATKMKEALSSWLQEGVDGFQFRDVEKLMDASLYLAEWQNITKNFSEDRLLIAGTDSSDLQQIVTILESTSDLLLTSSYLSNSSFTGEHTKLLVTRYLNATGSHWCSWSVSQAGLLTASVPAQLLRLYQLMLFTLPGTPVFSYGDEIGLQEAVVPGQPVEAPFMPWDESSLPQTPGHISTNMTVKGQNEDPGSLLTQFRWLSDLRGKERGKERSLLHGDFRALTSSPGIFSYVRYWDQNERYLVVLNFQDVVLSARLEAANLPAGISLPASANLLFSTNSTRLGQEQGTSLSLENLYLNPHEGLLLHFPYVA
Protocol: Transport capacity was determined by measuring the ability of these compounds to compete with L-phenylalanine for uptake into Chinese hamster ovary (CHO) cells. All transport studies were performed in the presence of 20 μM [^3 H]-L-phenylalanine and a varying amount of the inventive compound. The capacity of the compound for transport was evaluated by its ability to reduce the transport of phenylalanine. The compounds were determined to be either substrates or not substrates of the neutral amino acid transporter,and have KM values of between 20 and 500 μM.

[3] = test system: electroshock induced convulsions; assay: Electroshock induced convulsions in the mouse; assay type: in vivo
[4] = test system: glutamate recognition site of the NMDA receptor; assay: [3H]-glutamate receptor binding assay, synaptosomal membrane from rat cortex; conditions: for IC50: rat cortex synaptosomal membrane, read-out: affinity in [3H]-glutamate binding assay (ability to displace 50% of the radioligand)
Protocol: as §1, §2

NMDA receptor = conditions: read-out: [3H]-CCP binding assay result; cited from earlier work

IC50 [1] [nM] | IC50 [4] [nM] | Structure (SMILES) | inhibition of phenylalanine transport [2] | ED50 ([3]; iv, 50 mA 200 ms corneal shock, read-out: ED50, inhibition of hindlimb extension) [mg/kg] | anticonvulsant activity after oral administration ([3]; oral) | improvement in potency, as measured by binding assays, over prior art NMDA receptor antagonists ([4]; [3H]-glutamate and [3H]-CGP binding, comparison with prior art compounds) | IC50 (NMDA receptor) [nM]
8 | 4 | N[C@@H](Cc1cc(CP(=O)(O)O)cc(-c2cccc3ccccc23)c1)C(=O)O [3-(1-Naphthalenyl)-5-(phosphonomethyl)-L-phenylalanine] | inhibited phenylalanine transport in CHO cells | < 1 | demonstrates activity after oral administration with an extended duration of action | at least a ten to thirty fold, and up to a several hundred fold improvement in potency | 
98 | 115 | NC(Cc1cc(CP(=O)(O)O)cc(-c2ccccc2)c1)C(=O)O (single isomer, unassigned) [(+)-α-amino-3-(5-phosphonomethyl-[1,1'-biphenyl]-3-yl)propanoic acid, reference compound] |  |  |  |  | 
 |  | N[C@@H](Cc1cccc(CP(=O)(O)O)c1)C(=O)O [5-(phosphonomethyl)-phenylalanine] |  |  |  |  | 3300
